Experimental data taken from patent US10919862B2, “Fused imidazoles as mIDH1 inhibitors” (BAYER PHARMA AKTIENGESELLSCHAFT, priority 2015, dated 2021).
pIC50: −log10 of the molar value.

Tests used:
[1] = target: IDH1 R132H enzyme (Homo sapiens (Human), UniProt O75874, R132H); assay: Mutant IDH1 R132H biochemical assay; conditions: NADPH consumption, luminescent readout; 1.5 nM enzyme, 1 μM NADPH, 250 μM α-KG, 30 minutes, 32° C.
Experimental: Mutant IDH1 R132H Biochemical Assay
mIDH1 catalyzes the NADPH-dependent reduction of alpha-ketoglutarate (α-KG) to (2R)-2-hydroxyglutarate (2-HG). NADPH consumption was measured by luminescent readout.
The biochemical reactions were performed at 32° C. in 384-well plates using a reaction volume of 41 μL and the following assay buffer conditions: 50 mM Tris pH 7.5, 100 mM NaCl, 20 mM MgCl2, 0.05% BSA, 0.01% Brij, 1 μM NADPH, and 250 μM α-KG. The IDH1 R132H enzyme was used in a final concentration of 1.5 nM. Test compounds were used in a concentration range between 0.002 and 10 μM. The final DMSO concentration was 2.4%.
The reaction was incubated for 30 minutes, then 40 μL of detection mix (0.75 μg/ml Luciferase, 0.02 U/ml Oxidoreductase, 4 μg/mL FMN, 2 μL/ml decanal/ethanol, 50 mM Tris pH 7.5, 0.5% Glycerin, 0.01% Tween-20, 0.05% BSA) was added. Luminescence was measured on a luminescent reader (10 seconds measuring time, 1 second integration period, 30% sensitivity). The decrease in luminescence is proportional to mIDH1 activity. IC50 values are determined by interpolation from plots of relative luminescence versus inhibitor concentration.

[2] = system: LN229 R132H cells; assay: Mutant IDH1 cellular assay; format: cell-based; conditions: Homo sapiens, LN-229; 2-HG levels in medium of LN229 R132H cells, 24 hours, fluorescence readout
Experimental: Mutant IDH1 Cellular Assay
Levels of (2R)-2-hydroxyglutarate (2HG) were measured in medium of a cell line with overexpression of mutated isocitrate dehydrogenase (mIDH) protein. mIDH catalyzes the NADPH-dependent reduction of alpha-ketoglutarate to 2-HG. Cells (LN229 R132H, Mohrenz et al., Apoptosis (2013) 18:1416-1425) were grown in DMEM containing 10% FCS. They were harvested by trypsin and seeded into 96-well plates. Cells were incubated overnight at 37° C. in 5% CO2. The next day test compounds were added to each cell well. The final concentration of DMSO was 0.1% and DMSO controls were included. The plates were then placed in an incubator for 24 hours.
2-HG was measured according to Balss et al. (Acta Neuropathol (2012) 124: 883-891). Briefly, perchloric acid was added to each well and the plates were centrifuged. Aliquots are removed and incubated with hydroxyglutarate dehydrogenase (HGDH), diaphorase, NAD+, and resazurin. The conversion of resazurin to resorufin was detected by fluorescence spectroscopy at Ex 540 nm Em 600 nm. The increase in fluorescence is proportional to 2-HG production. IC50 values are determined by interpolation from plots of relative fluorescence vs inhibitor concentration.

IDH1 R132H enzyme, sequence (O75874 whole entry R132H): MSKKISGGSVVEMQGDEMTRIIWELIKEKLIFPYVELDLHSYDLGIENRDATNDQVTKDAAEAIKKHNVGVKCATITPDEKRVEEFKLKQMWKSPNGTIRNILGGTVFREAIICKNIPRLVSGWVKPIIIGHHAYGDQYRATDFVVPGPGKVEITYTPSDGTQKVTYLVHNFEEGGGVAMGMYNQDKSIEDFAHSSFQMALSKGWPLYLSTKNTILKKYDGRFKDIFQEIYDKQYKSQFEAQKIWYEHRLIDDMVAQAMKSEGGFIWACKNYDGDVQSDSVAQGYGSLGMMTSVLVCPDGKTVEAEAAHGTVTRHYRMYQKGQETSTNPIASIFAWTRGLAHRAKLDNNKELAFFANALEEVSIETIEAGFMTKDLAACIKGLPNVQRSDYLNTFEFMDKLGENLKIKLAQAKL

| Compound | pIC50 [1] | pIC50 [2] |
| --- | --- | --- |
| CC1(C)C[C@@H](CO)C[C@@H](n2c(Nc3ccc(OC(F)(F)F)cc3)nc3cc(CCC(=O)O)ccc32)C1 [Example 2-3, 3-(1-[(1R,5R)-5-(hydroxymethyl)-3,3-dimethylcyclohexyl]-2-{[4-(trifluoromethoxy)-phenyl]amino}-1H-benzimidazol-5-yl)propanoic acid] | 6.74 | 5.92 |
| C[C@H]1C[C@@H](n2c(Nc3ccc(OC(F)(F)F)cc3)nc3cc(C(=O)O)ccc32)CC(C)(C)[C@@H]1O [Example 2-2, 1-[(1R,4R,5S)-4-hydroxy-3,3,5-trimethylcyclohexyl]-2-{[4-(trifluoromethoxy)-phenyl]amino}-1H-benzimidazole-5-carboxylic acid] | 5.32 |  |
| CC1(C)C[C@@H](n2c(Nc3ccc(OC(F)(F)F)cc3)nc3cnccc32)C[C@@](C)(CO)C1 [Example 2-6, [(1 S,5R)-1,3,3-trimethyl-5-(2-{[4-(trifluoromethoxy)phenyl]amino}-1H-imidazo-[4,5-c]pyridin-1-yl)cyclohexyl]methanol] | 7.52 | 5.80 |
| C[C@H]1C[C@@H](n2c(Nc3ccc(OC(F)(F)F)cc3)nc3cc(CCC(=O)O)ccc32)CC(C)(CO)C1 (stereo partly drawn) [Example 2-4, 3-(1-[(1R,5R)-3-(hydroxymethyl)-3,5-dimethylcyclohexyl]-2-{[4-(trifluoromethoxy)-phenyl]amino}-1H-benzimidazol-5-yl)propanoic acid] | 6.57 | 5.66 |
| C[C@H]1C[C@@H](n2c(Nc3ccc(OC(F)(F)F)cc3)nc3cc(CCC(=O)O)ccc32)CC(C)(C)[C@@H]1O [Example 2-5, 3-(1-[(1R,4R,5S)-4-hydroxy-3,35-trimethylcyclohexyl]-2-{[4-(trifluoromethoxy)-phenyl]amino}-1H-benzimidazol-5-yl)propanoic acid] | 5.39 |  |
| C[C@H]1C[C@@H](n2c(Nc3ccc(OC(F)(F)F)cc3)nc3cc(C(=O)O)ccc32)CC(C)(CO)C1 (stereo partly drawn) [Example 2-1, 1-[(1R,5R)-3-(hydroxymethyl)-3,5-dimethylcyclohexyl]-2-{[4-(trifluoromethoxy)-phenyl]amino}-1H-benzimidazole-5-carboxylic acid] | 6.30 |  |
